Structure (SMILES)	logP
CCN(CC)c1nc(N)nc(Cl)n1	2.12
CC(C)Nc1nc(N)[nH]c(=O)n1	-0.08
CCNc1nc(NC(C)(C)C)nc(=O)[nH]1	1.5
CCNc1nc(N)nc(=O)[nH]1	-0.3
Nc1nc(N)nc(Cl)n1	0.11
CCC(C)Nc1nc(N)nc(Cl)n1 (centres undefined)	1.78
CNc1nc(NC)nc(NC(C)C)n1	1.87
Nc1nc(N)[nH]c(=O)n1	-0.46
COc1nc(N)nc(NC(C)(C)C)n1	1.93
COc1nc(NC(C)C)nc(NC(C)C)n1	2.6
CC(C)(C)Nc1nc(N)[nH]c(=O)n1	0.43
Nc1nc(N)nc(NC2CC2)n1	0.05
CCNc1nc(NCC)[nH]c(=O)n1	0.35
Cc1nnc(-c2ccccc2)c(=O)n1N	0.98
CCNc1nc(NC(C)C)nc(=O)[nH]1	0.76
O=c1[nH]c(=O)[nH]c(=O)[nH]1	-0.47
Nc1nc(N)nc(N)n1	-0.4
CCNc1nc(N)nc(OC)n1	0.83
CCNc1nc(N=[N+]=[N-])nc(NC(C)C)n1	2.57
